Laboratory results: paper PMC5454592, “Pharmacological and Toxicological Properties of the Potent Oral γ-Secretase Modulator BPN-15606” (The Journal of Pharmacology and Experimental Therapeutics, 2017)
Where two headings read alike, the source gives them in different places.

Legend:
[1] = Repeat-dose (9-day) efficacy study in rats; assay type: in vivo, Sprague–Dawley rats; details: male, Sprague-Dawley, rat, in vivo
Protocol: (§1) Male C57BL/6J mice (n = 10/dose level) and male Sprague–Dawley rats (n = 14/dose level) were administered either vehicle (80% polyethylene glycol 400 v/v; 20% sterile water v/v and 0.1% Tween 20 v/v) or BPN-15606 (10, 25, and 50 mg/kg) once daily po for 7 consecutive days (mice) or 5, 25, and 50 mg/kg once daily po for 9 consecutive days (rats). […] Animals were sacrificed 4 hours following the dosing on day 7 of the 7-day oral treatment course (mice) and on day 9 of the 9-day oral treatment course (rats). Plasma and brain extracts were prepared (mice and rats); CSF was aspirated from the cisterna magnum with minimal to no blood contamination (rats only); and tissues were frozen at −70°C. Aβ peptides were quantitated in brain extracts and plasma (mice) or CSF and plasma (rats), as described previously, using Meso Scale multiplex kits and the Meso Scale Sector Imager 6000 ([Kounnas et al., 2010]). Statistical analysis was performed using GraphPad Prism software, and results are expressed as mean ± S.E.M. Analysis of variance was used to detect a significant effect. Drug levels of BPN-15606 were measured in plasma and brain extracts using the bioanalytical methods detailed above.

Aβ42 and Aβ40 levels = assay: Repeat-dose (9-day) efficacy study in rats; assay type: in vivo, Sprague–Dawley rats
Protocol: as §1

in vivo = details: both sexes, cynomolgus monkey, po, repeat dose
Aβ neuritic plaques = assay: Chronic repeat-dose efficacy in PSAPP transgenic mice (Thioflavin S plaque load); assay type: in vivo
Protocol: Thirty-five female double-transgenic mice, model presenilin amyloid precursor protein ([Jankowsky et al., 2004]), purchased from The Jackson Laboratory (Bar Harbor, ME) [B6.C3-Tg (APPswe, PSEN1dE9) 85Dbo/Mmjax, stock no. 0034829] and then bred in-house, were used in the study at 90 days of age. The mice were housed in a temperature-controlled room at a constant 22°C in a 12:12-hour light/dark cycle (lights off at 18:00), with food and water available ad libitum. Age-matched mice were housed by treatment group in groups of two to four per cage. All experimental procedures were reviewed and approved by Institutional Animal Care and Use Committee at University of California, San Diego. Subjects were randomly assigned to either the drug group (BPN-15606) or vehicle, with individual groups ranging from 9 to 10 mice. Mice were treated for 6 months with BPN-15606 at a dose of 10 mg/kg/d. For the drug administration, BPN-15606 was milled into standard rodent chow, processed by Research Diets (New Brunswick, NJ). All animals were weighed three times weekly to assess any adverse effects on normal weight gain during the 6-month treatment period. Food consumption was determined by weighing the metal cage, including the chow, to the nearest 0.1 g.
To determine Aβ fibril plaque load, floating coronal sections from AD and wild-type mice, n = 4 for each group, were washed in miliQ water and mounted on Fisherbrand Superfrost Plus microscope slides, before being processed for 1% (w/v) Thioflavin S staining. All images were taken with Leica (Mannheim, Germany) fluorescence microscope at 5× and with the same exposure across all images. The percent plaque within specified areas of a series of hippocampal and frontal cortex sections was quantified using ImageJ software from National Institutes of Health. Images were converted to 8-bit grayscale, and area of interest was traced and determined. Brightness and B/W threshold were adjusted appropriately and consistently across all images. The area of plaque particles within the area of interest was obtained, and the percent plaque was calculated. […]

[2] = Toxicokinetics in rats (7-day po); assay type: in vivo; details: male, Sprague-Dawley, rat, plasma; for MRT last: day 1, read-out: mean residence time to the last time point
Protocol: Data were subjected to noncompartmental analysis using WinNonlin Phoenix Model 200 (for extravascular administration) or Model 201 (for i.v. bolus administration) and the sparse sampling feature; a uniform weighting factor was applied to each data set. Time to maximum plasma concentration (Tmax) and maximum plasma concentration (Cmax) values were determined directly from the data. Area under the plasma concentration–time curve to the last time point (AUClast) values were calculated using the log/linear trapezoidal (i.v. dose) or linear up/log down trapezoidal (po dose). Values were calculated using the plasma data from composite groups. The dose administered was input to the program as mg/kg, and as a result no additional corrections for individual body weights of the animals were necessary. The following parameters and constants were determined for the i.v. and po groups: observed Cmax, Tmax, AUClast, area under the plasma concentration–time curve extrapolated to infinity, terminal phase elimination half-life, and mean residence time to the last time point. The volume of distribution at steady state and clearance were calculated using the i.v. group data. Bioavailability after oral administration was calculated using the AUClast values for both the i.v. and po groups.
The objectives of this toxicity study were to determine maximum tolerated dose (MTD), characterize the potential toxicity, and calculate toxicokinetic parameters of BPN-15606 in adult male Sprague–Dawley rats (8–10 weeks of age) following daily po dose administration for 7 consecutive days, and to evaluate its potential to damage chromosomes or cause mitotic spindle abnormalities in vivo, as measured by the incidence of micronucleus formation in RNA-containing erythrocytes (bone marrow micronucleus assay). An overview of the study design is presented in Supplemental Table 8. Male rats were administered BPN-15606 po for 7 consecutive days at 30, 100, or 300 mg/kg (groups 2, 3, and 4). A control group (group 1) was given vehicle, 15% Labrasol/85% sterile water, at an equivalent dose volume (10 ml/kg). A 375 mg/kg dose (group 5) was included for determination of day 1 plasma drug levels. Clinical observations were recorded twice daily.

[3] = 10 mg/kg/d in chow for 6 months

Compound: COc1nc(-c2cc(C)c(N[C@@H](C)c3ccc(F)cc3)nn2)ccc1-n1cnc(C)c1 [BPN-15606, (S)-N-(1-(4-fluorophenyl)ethyl)-6-(6-methoxy-5-(4-methyl-1H-imidazol-1-yl)pyridin-2-yl)-4-methylpyridazin-3-amine]
- NOAEL at 9 days [1]: 50 mg/kg
- safety margin based on dose (Aβ42 and Aβ40 levels; rat, NOAEL 50 mg/kg vs lowest efficacious dose 5 mg/kg): ≥ 10 fold
- lowering of CSF Aβ42 levels (Aβ42 and Aβ40 levels; rats, 5 mg/kg): ~40%
- lowering of CSF Aβ42 levels (Aβ42 and Aβ40 levels; rats, 25 mg/kg): 70–75%
- lowering of plasma Aβ42 (Aβ42 and Aβ40 levels; rats, 25 mg/kg): > 90%
- clinical observations (Aβ42 and Aβ40 levels; rats, 5, 25, 50 mg/kg po daily for 9 days): all animals appeared normal throughout the study
- MTD at 6 days (in vivo): < 300 mg/kg/day
- necropsy findings at end of study (Aβ neuritic plaques; 10 mg/kg/d for 6 months): no significant adverse findings
- accumulation of Aβ neuritic plaques in cortex (Thioflavin S, densitometry) (Aβ neuritic plaques; [3]): significantly reduced accumulation of Aβ neuritic plaques
- accumulation of Aβ neuritic plaques in hippocampus (Thioflavin S, densitometry) (Aβ neuritic plaques; [3]): significantly reduced accumulation of Aβ neuritic plaques
- Tmax ([2]; 30 mg/kg, rats, 30 mg/kg, day 1, read-out: mean Tmax): 13.3 h
- Tmax ([2]; 30 mg/kg, rats, 30 mg/kg, day 7, read-out: mean Tmax): 6.7 h
- Tmax ([2]; rats po, depending on dose, read-out: Tmax for individual animals): 4 to 24 h
- MRT last ([2]; rats, 30 mg/kg): 9.1 h
- MRT last ([2]; rats, 100 mg/kg): 13.6 h
- Tmax ([2]; rats, 100 and 300 dose groups, day 1, read-out: mean Tmax (time to the peak plasma drug level)): 18.7 h
